Experimental data reported in ChEMBL document CHEMBL2311352, “Discovery of 4-phenyl-2-phenylaminopyridine based TNIK inhibitors” (Bioorg Med Chem Lett, 2013).

How the values were obtained:
[1] = biological target: High affinity nerve growth factor receptor (Homo sapiens) (UniProt P04629); test: Inhibition of TRKA (unknown origin) at 1 uM
[2] = biological target: Homeodomain-interacting protein kinase 3 (Homo sapiens) (UniProt Q9H422); test: Inhibition of HIPK3 (unknown origin) at 1 uM
[3] = biological target: Dual specificity mitogen-activated protein kinase kinase 2 (Homo sapiens) (UniProt P36507); test: Inhibition of MEK2 (unknown origin) at 1 uM
[4] = biological target: Serine/threonine-protein kinase Nek1 (Homo sapiens) (UniProt Q96PY6); test: Inhibition of NEK1 (unknown origin) at 1 uM
Chain of Serine/threonine-protein kinase Nek1 (Homo sapiens) (Q96PY6 whole entry): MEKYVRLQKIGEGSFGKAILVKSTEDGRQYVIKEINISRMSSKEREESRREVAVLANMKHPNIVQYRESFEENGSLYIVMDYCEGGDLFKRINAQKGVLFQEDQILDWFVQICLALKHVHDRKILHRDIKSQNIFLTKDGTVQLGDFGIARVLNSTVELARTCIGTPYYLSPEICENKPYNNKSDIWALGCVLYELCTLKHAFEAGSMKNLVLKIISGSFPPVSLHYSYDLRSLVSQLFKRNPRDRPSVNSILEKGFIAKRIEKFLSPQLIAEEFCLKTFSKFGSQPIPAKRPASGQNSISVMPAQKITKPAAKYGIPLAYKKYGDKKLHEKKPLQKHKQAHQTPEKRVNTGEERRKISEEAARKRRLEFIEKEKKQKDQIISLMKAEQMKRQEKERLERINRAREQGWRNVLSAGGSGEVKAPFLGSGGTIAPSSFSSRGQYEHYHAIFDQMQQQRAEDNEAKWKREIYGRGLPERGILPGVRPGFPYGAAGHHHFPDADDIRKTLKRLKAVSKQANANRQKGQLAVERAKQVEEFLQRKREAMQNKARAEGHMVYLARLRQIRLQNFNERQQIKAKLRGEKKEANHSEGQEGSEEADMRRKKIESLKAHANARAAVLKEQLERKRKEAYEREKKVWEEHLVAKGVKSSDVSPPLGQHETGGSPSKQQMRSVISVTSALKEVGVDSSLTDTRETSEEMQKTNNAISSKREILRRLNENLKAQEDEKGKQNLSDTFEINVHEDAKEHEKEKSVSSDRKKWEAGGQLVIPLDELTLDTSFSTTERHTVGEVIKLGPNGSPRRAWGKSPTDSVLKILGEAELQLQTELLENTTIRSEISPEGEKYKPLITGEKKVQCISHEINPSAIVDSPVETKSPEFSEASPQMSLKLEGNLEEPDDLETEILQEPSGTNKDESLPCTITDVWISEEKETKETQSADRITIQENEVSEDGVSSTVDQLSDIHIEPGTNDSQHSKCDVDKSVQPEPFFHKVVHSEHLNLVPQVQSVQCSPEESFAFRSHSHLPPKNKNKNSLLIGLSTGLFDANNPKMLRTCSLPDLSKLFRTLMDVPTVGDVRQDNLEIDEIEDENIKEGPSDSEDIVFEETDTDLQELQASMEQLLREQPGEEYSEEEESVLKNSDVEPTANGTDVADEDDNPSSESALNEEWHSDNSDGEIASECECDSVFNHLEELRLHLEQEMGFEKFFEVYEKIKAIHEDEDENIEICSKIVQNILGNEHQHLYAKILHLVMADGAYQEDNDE

[5] = biological target: Tyrosine-protein kinase Lck (Homo sapiens) (UniProt P06239); test: Inhibition of LCK (unknown origin) at 1 uM
[6] = biological target: Proto-oncogene tyrosine-protein kinase Src (Homo sapiens) (UniProt P12931); test: Inhibition of c-SRC (unknown origin) at 1 uM
[7] = biological target: Serine/threonine-protein kinase Chk2 (Homo sapiens) (UniProt O96017); test: Inhibition of CHK2 (unknown origin) at 1 uM
Chain of Serine/threonine-protein kinase Chk2 (Homo sapiens) (O96017 whole entry): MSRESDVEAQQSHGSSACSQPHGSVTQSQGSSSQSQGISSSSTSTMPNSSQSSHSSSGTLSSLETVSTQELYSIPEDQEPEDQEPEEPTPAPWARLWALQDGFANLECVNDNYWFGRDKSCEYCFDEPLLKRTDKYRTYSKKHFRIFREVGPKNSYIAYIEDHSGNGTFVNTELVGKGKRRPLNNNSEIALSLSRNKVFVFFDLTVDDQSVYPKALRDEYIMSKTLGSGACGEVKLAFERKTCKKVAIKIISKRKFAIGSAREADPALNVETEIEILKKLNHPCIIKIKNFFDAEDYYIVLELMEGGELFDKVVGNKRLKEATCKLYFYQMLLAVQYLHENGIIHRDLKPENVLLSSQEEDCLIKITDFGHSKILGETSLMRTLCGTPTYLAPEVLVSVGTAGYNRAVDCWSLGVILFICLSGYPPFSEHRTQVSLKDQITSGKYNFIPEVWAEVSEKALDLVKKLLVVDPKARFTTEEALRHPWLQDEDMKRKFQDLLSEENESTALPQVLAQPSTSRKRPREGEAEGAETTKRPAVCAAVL

[8] = biological target: Protein-tyrosine kinase 6 (Homo sapiens) (UniProt Q13882); test: Inhibition of BRK (unknown origin) at 1 uM
[9] = biological target: Macrophage colony-stimulating factor 1 receptor (Homo sapiens) (UniProt P07333); test: Inhibition of FMS (unknown origin) at 1 uM
[10] = biological target: Tyrosine-protein kinase ABL2 (Homo sapiens) (UniProt P42684); test: Inhibition of ABL2 (unknown origin) at 1 uM
[11] = biological target: NT-3 growth factor receptor (Homo sapiens) (UniProt Q16288); test: Inhibition of TRKC (unknown origin) at 1 uM
[12] = biological target: Fibroblast growth factor receptor 2 (Homo sapiens) (UniProt P21802); test: Inhibition of FGFR2 (unknown origin) at 1 uM
[13] = biological target: Aurora kinase A (Homo sapiens) (UniProt O14965); test: Inhibition of aurora A (unknown origin) at 1 uM
[14] = biological target: Proto-oncogene tyrosine-protein kinase ROS (Homo sapiens) (UniProt P08922); test: Inhibition of ROS (unknown origin) at 1 uM
[15] = biological target: Inhibitor of nuclear factor kappa-B kinase subunit epsilon (Homo sapiens) (UniProt Q14164); test: Inhibition of IKKepsilon (unknown origin) at 1 uM
[16] = biological target: Vascular endothelial growth factor receptor 2 (Homo sapiens) (UniProt P35968); test: Inhibition of VEGFR2 (unknown origin) at 1 uM
[17] = biological target: Fibroblast growth factor receptor 1 (Homo sapiens) (UniProt P11362); test: Inhibition of FGFR1 (unknown origin) at 1 uM
[18] = biological target: Tyrosine-protein kinase JAK2 (Homo sapiens) (UniProt O60674); test: Inhibition of JAK2 (unknown origin) at 1 uM
[19] = tested on: Caco-2; test: Ratio of apparent permeability across basolateral to apical side over apical to basolateral side in human Caco2 cells; format: ADME, cell-based
[20] = biological target: Angiopoietin-1 receptor (Homo sapiens) (UniProt Q02763); test: Inhibition of TIE2 (unknown origin) at 1 uM
[21] = biological target: Cyclin-dependent kinase 1/cyclin B1 (Homo sapiens) (UniProt P06493+P14635); test: Inhibition of CDK1/cyclin B (unknown origin) at 1 uM; format: protein-complex assay
[22] = biological target: Tyrosine-protein kinase HCK (Homo sapiens) (UniProt P08631); test: Inhibition of HCK (unknown origin) at 1 uM
[23] = biological target: Protein kinase C theta type (Homo sapiens) (UniProt Q04759); test: Inhibition of PKCtheta (unknown origin) at 1 uM
[24] = biological target: Serine/threonine-protein kinase 26 (Homo sapiens) (UniProt Q9P289); test: Inhibition of MST4 (unknown origin) at 1 uM
[25] = biological target: Homeodomain-interacting protein kinase 1 (Homo sapiens) (UniProt Q86Z02); test: Inhibition of HIPK1 (unknown origin) at 1 uM
[26] = biological target: Cyclin-dependent kinase 2/cyclin A (Homo sapiens) (UniProt P24941+P20248+P78396); test: Inhibition of CDK2/cyclin A (unknown origin) at 1 uM; format: protein-complex assay
[27] = biological target: Protein kinase C delta type (Homo sapiens) (UniProt Q05655); test: Inhibition of PKCdelta (unknown origin) at 1 uM
[28] = biological target: Ephrin type-A receptor 1 (Homo sapiens) (UniProt P21709); test: Inhibition of EPHA1 (unknown origin) at 1 uM
[29] = biological target: Protein-tyrosine kinase 2-beta (Homo sapiens) (UniProt Q14289); test: Inhibition of PYK2 (unknown origin) at 1 uM
[30] = biological target: CDK9/cyclin T1 (Homo sapiens) (UniProt O60563+P50750); test: Inhibition of CDK9/cyclin T1 (unknown origin) at 1 uM; format: protein-complex assay
[31] = biological target: Focal adhesion kinase 1 (Homo sapiens) (UniProt Q05397); test: Inhibition of FAK (unknown origin) at 1 uM
[32] = biological target: Serine/threonine-protein kinase PAK 4 (Homo sapiens) (UniProt O96013); test: Inhibition of PAK4 (unknown origin) at 1 uM
[33] = biological target: Mast/stem cell growth factor receptor Kit (Homo sapiens) (UniProt P10721); test: Inhibition of c-KIT (unknown origin) at 1 uM
[34] = biological target: BDNF/NT-3 growth factors receptor (Homo sapiens) (UniProt Q16620); test: Inhibition of TRKB (unknown origin) at 1 uM
Chain of BDNF/NT-3 growth factors receptor (Homo sapiens) (Q16620 32-822 limits assumed): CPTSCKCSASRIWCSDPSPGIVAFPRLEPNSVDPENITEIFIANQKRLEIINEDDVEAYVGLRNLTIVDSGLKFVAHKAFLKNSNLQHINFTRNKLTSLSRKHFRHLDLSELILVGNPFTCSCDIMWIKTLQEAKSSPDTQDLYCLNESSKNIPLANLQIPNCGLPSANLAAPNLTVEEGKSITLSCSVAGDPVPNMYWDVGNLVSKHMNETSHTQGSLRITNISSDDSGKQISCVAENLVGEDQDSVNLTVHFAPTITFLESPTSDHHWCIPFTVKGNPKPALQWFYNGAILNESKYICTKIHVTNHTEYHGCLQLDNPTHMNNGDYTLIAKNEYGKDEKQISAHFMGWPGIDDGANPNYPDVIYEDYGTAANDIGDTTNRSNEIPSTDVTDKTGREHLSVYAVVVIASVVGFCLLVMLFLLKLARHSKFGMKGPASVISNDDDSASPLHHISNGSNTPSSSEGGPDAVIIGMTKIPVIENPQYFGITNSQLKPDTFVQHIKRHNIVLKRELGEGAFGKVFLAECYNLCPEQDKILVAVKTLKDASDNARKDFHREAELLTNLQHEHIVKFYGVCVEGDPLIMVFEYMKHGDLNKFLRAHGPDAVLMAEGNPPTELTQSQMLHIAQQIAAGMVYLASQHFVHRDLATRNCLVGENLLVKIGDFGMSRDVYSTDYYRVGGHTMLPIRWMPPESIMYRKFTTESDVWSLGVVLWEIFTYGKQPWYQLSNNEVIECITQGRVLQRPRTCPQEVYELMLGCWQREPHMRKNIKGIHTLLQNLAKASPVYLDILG

[35] = biological target: Casein kinase II subunit alpha (Homo sapiens) (UniProt P68400); test: Inhibition of CK2alpha (unknown origin) at 1 uM
[36] = biological target: Death-associated protein kinase 1 (Homo sapiens) (UniProt P53355); test: Inhibition of DAPK1 (unknown origin) at 1 uM
[37] = biological target: Aurora kinase C (Homo sapiens) (UniProt Q9UQB9); test: Inhibition of aurora C (unknown origin) at 1 uM
[38] = biological target: Muscle, skeletal receptor tyrosine-protein kinase (Homo sapiens) (UniProt O15146); test: Inhibition of MUSK (unknown origin) at 1 uM
[39] = biological target: Tyrosine-protein kinase Fes/Fps (Homo sapiens) (UniProt P07332); test: Inhibition of FES (unknown origin) at 1 uM
[40] = biological target: Insulin-like growth factor 1 receptor (Homo sapiens) (UniProt P08069); test: Inhibition of IGF1R (unknown origin) at 1 uM
[41] = biological target: Tyrosine-protein kinase receptor UFO (Homo sapiens) (UniProt P30530); test: Inhibition of AXL (unknown origin) at 1 uM
Chain of Tyrosine-protein kinase receptor UFO (Homo sapiens) (P30530 whole entry): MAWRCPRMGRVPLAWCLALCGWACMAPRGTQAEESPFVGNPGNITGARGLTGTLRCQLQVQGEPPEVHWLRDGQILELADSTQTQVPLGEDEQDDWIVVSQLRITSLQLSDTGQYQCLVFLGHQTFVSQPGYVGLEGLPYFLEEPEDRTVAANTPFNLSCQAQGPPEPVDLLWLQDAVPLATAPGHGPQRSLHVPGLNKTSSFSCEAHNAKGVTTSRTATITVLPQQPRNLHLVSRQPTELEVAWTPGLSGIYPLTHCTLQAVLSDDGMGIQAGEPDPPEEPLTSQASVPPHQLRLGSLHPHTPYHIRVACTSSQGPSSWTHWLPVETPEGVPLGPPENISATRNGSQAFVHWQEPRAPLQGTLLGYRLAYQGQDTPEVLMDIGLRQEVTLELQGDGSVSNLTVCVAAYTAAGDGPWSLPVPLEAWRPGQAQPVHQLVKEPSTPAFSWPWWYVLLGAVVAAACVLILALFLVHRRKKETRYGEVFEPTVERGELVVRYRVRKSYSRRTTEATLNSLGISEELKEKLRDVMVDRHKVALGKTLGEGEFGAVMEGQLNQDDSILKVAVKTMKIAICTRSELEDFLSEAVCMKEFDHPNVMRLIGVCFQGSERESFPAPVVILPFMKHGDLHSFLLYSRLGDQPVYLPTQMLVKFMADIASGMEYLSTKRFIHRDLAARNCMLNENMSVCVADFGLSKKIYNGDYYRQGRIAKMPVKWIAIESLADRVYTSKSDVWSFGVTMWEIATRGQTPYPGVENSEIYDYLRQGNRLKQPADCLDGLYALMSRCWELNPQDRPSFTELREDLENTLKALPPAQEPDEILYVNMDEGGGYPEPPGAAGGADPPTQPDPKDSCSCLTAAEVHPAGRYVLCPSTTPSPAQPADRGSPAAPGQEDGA

[42] = Apparent permeability across basolateral to apical side in human Caco2 cells; format: ADME, cell-based; settings: Caco-2
[43] = biological target: T1, TRAF2 and NCK-interacting protein kinase (Homo sapiens, UniProt Q9UKE5); test: Inhibition of TNIK-mediated TCF4/[…] transcription in human HCT116 cells by beta-lactamase reporter gene assay; format: cell-based, HCT-116
T1 sequence (Q9UKE5 whole entry): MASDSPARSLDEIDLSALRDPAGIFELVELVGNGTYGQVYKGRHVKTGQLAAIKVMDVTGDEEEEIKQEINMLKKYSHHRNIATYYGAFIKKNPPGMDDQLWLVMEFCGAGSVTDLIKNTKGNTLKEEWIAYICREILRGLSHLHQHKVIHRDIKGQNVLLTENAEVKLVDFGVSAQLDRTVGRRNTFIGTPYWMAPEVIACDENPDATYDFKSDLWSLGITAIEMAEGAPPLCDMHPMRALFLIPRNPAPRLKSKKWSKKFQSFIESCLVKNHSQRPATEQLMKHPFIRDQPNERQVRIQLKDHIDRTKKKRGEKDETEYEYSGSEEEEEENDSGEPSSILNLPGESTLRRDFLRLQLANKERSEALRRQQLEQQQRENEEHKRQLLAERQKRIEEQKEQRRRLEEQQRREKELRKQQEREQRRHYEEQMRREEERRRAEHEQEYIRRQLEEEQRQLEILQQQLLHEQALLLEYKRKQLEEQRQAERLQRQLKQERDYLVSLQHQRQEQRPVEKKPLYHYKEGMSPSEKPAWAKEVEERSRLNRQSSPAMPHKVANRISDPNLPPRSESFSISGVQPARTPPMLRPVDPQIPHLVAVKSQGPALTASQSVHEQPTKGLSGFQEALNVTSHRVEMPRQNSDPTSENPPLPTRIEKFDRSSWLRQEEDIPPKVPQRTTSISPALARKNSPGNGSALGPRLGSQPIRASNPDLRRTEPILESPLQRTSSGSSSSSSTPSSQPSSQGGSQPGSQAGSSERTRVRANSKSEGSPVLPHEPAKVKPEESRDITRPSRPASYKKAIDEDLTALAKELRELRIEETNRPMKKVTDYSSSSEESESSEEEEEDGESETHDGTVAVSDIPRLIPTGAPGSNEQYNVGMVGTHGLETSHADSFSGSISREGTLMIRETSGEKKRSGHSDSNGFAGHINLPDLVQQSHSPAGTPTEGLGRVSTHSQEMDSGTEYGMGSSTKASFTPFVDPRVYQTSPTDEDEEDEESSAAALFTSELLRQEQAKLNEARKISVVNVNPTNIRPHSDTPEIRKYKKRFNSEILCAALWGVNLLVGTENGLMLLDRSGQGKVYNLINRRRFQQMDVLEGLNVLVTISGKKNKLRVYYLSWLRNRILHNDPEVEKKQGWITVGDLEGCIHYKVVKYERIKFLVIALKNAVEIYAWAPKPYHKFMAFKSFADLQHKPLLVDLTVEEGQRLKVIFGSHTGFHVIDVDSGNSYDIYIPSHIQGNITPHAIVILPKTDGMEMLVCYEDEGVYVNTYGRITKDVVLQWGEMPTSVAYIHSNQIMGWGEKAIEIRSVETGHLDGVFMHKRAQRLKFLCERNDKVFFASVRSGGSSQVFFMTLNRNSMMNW

[44] = biological target: T1, TRAF2 and NCK-interacting protein kinase; test: Inhibition of TNIK (unknown origin) by ADP glo luminescent assay
[45] = biological target: Protein kinase C epsilon (Homo sapiens) (UniProt Q02156); test: Inhibition of PKCepsilon (unknown origin) at 1 uM

SMILES: COc1cc(Nc2ncc(Cl)c(-c3cccc(CC#N)c3)n2)ccc1N1CCN(C)CC1
- inhibition [1]: > 80%
- inhibition [2]: > 80%
- inhibition [3]: > 80%
- inhibition [4]: > 80%
- inhibition [5]: > 80%
- inhibition [6]: > 80%
- inhibition [7]: > 80%
- inhibition [8]: > 80%
- inhibition [9]: > 80%
- inhibition [10]: > 80%
- inhibition [11]: > 95%
- inhibition [12]: > 95%
- inhibition [13]: > 95%
- inhibition [14]: > 95%
- inhibition [15]: > 95%
- inhibition [16]: > 95%
- inhibition [17]: > 95%
- inhibition [18]: > 95%
- Ratio [19]: 0.96
- inhibition [20]: 50%
- inhibition [21]: > 50%
- inhibition [22]: 50%
- inhibition [23]: 50%
- inhibition [24]: 50%
- inhibition [25]: 50%
- inhibition [26]: > 50%
- inhibition [27]: 50%
- inhibition [28]: 50%
- inhibition [29]: 50%
- inhibition [30]: > 50%
- inhibition [31]: 50%
- inhibition [32]: 50%
- inhibition [33]: > 80%
- inhibition [34]: > 80%
- inhibition [35]: > 80%
- inhibition [36]: > 80%
- inhibition [37]: > 80%
- inhibition [38]: > 80%
- inhibition [39]: > 80%
- inhibition [40]: > 80%
- inhibition [41]: > 80%
- Papp B→A [42]: 7.7 ×10⁻⁶ cm/s
- IC50 [43]: 350 nM
- IC50 [44]: 65 nM
- inhibition [45]: 50%
